Tested on: normal human lung fibroblasts
Experiment: Ribosomal profiling: translational efficiency in TGFβ-treated fibroblasts
Assay type: cell-based
Settings: TGFβ-treated fibroblasts
Method in brief: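 Genome-wide RPF and total RNA libraries (ARTseq, RNA-Seq) were made from lysates of cycloheximide-treated, PBS-washed cells. After trimming and human-genome mapping, per-gene coding-region counts were compared between RPF and RNA for translational efficiency. Genes scoring low in either fraction were dropped.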

**Q.** What does the source list for Cc1cc(C2CCCCC2)n(O)c(=O)c1.NCCO [CPX, ciclopirox oloamine]?
**A.** renormalizing the translational profile of RPL9 (ENSG00000163682): − (− = <0.9); renormalizing the translational profile of RHOBTB3 (ENSG00000164292): − (− = <0.9); renormalizing the translational profile of RPL36AL (ENSG00000165502): − (− = <0.9); renormalizing the translational profile of RPL27A (ENSG00000166441): − (− = <0.9); renormalizing the translational profile of RP11-382A20.3.1 (ENSG00000166503): − (− = <0.9); renormalizing the translational profile of ANKDD1A (ENSG00000166839): − (− = <0.9); renormalizing the translational profile of RPL13 (ENSG00000167526): − (− = <0.9); renormalizing the translational profile of EEF2 (ENSG00000167658): − (− = <0.9); renormalizing the translational profile of CA5B (ENSG00000169239): − (− = <0.9); renormalizing the translational profile of KIAA1024 (ENSG00000169330): − (− = <0.9); renormalizing the translational profile of MURC (ENSG00000170681): − (− = <0.9); renormalizing the translational profile of HTRA3 (ENSG00000170801): − (− = <0.9); renormalizing the translational profile of PDE7B (ENSG00000171408): − (− = <0.9); renormalizing the translational profile of LPAR3 (ENSG00000171517): − (− = <0.9); renormalizing the translational profile of CTPS (ENSG00000171793): − (− = <0.9); renormalizing the translational profile of QARS (ENSG00000172053): − (− = <0.9); renormalizing the translational profile of RPL38 (ENSG00000172809): − (− = <0.9); renormalizing the translational profile of MRPL45 (ENSG00000174100): − (− = <0.9); renormalizing the translational profile of RPL4 (ENSG00000174444): − (− = <0.9); renormalizing the translational profile of RPL15 (ENSG00000174748): − (− = <0.9); renormalizing the translational profile of DES (ENSG00000175084): − (− = <0.9); renormalizing the translational profile of EIF3F (ENSG00000175390): − (− = <0.9); renormalizing the translational profile of CLCF1 (ENSG00000175505): − (− = <0.9); renormalizing the translational profile of AMIGO3 (ENSG00000176020): − (− = <0.9); renormalizing the translational profile of C14orf49 (ENSG00000176438): − (− = <0.9); renormalizing the translational profile of RPLP2 (ENSG00000177600): − (− = <0.9); renormalizing the translational profile of IMPDH2 (ENSG00000178035): − (− = <0.9); renormalizing the translational profile of DNAJC22 (ENSG00000178401): − (− = <0.9); renormalizing the translational profile of RPL35A (ENSG00000182899): − (− = <0.9); renormalizing the translational profile of LENG9 (ENSG00000182909): − (− = <0.9); renormalizing the translational profile of C22orf32 (ENSG00000183172): − (− = <0.9); renormalizing the translational profile of PDE4B (ENSG00000184588): − (− = <0.9); renormalizing the translational profile of ROBO2 (ENSG00000185008): + (+ = 0.9 to 1.5); renormalizing the translational profile of PTCH1 (ENSG00000185920): − (− = <0.9); renormalizing the translational profile of POLR1D (ENSG00000186184): − (− = <0.9); renormalizing the translational profile of DYNC2H1 (ENSG00000187240): − (− = <0.9); renormalizing the translational profile of RPL14 (ENSG00000188846): − (− = <0.9); renormalizing the translational profile of LRRK2 (ENSG00000188906): − (− = <0.9); renormalizing the translational profile of NACA (ENSG00000196531): − (− = <0.9); renormalizing the translational profile of LAMB3 (ENSG00000196878): + (+ = 0.9 to 1.5); renormalizing the translational profile of PCBP2 (ENSG00000197111): − (− = <0.9); renormalizing the translational profile of MAP3K5 (ENSG00000197442): − (− = <0.9); renormalizing the translational profile of RPL37A (ENSG00000197756): − (− = <0.9); renormalizing the translational profile of RPL12 (ENSG00000197958): − (− = <0.9); renormalizing the translational profile of LPAR1 (ENSG00000198121): − (− = <0.9); renormalizing the translational profile of RPL23A (ENSG00000198242): − (− = <0.9); renormalizing the translational profile of PLN (ENSG00000198523): − (− = <0.9); renormalizing the translational profile of RPL10A (ENSG00000198755): − (− = <0.9); renormalizing the translational profile of CES1 (ENSG00000198848): + (+ = 0.9 to 1.5); renormalizing the translational profile of RPL39 (ENSG00000198918): − (− = <0.9); renormalizing the translational profile of CARD16 (ENSG00000204397): − (− = <0.9); renormalizing the translational profile of MICA (ENSG00000204520): − (− = <0.9); renormalizing the translational profile of GNB2L1 (ENSG00000204628): − (− = <0.9); renormalizing the translational profile of RPL17 (ENSG00000215472): − (− = <0.9); renormalizing the translational profile of RPL41 (ENSG00000229117): − (− = <0.9); renormalizing the translational profile of ARPC1A (ENSG00000241685): − (− = <0.9); renormalizing the translational profile of CHCHD10 (ENSG00000250479): − (− = <0.9); renormalizing the translational profile of EEF1G (ENSG00000254772): − (− = <0.9); number of genes whose translational efficiency was uniquely modulated by the compound (duplicate ribosomal profiles): six; effect in renormalizing the translational profile of the gene (gene RPS2 (ENSG00000140988)): − (− = <0.9); effect in renormalizing the translational profile of the gene (gene RPS3 (ENSG00000149273)): − (− = <0.9); effect in renormalizing the translational profile of the gene (gene RPS3A (ENSG00000145425)): − (− = <0.9); effect in renormalizing the translational profile of the gene (gene RPS4X (ENSG00000198034)): − (− = <0.9); effect in renormalizing the translational profile of the gene (gene RPS4Y1 (ENSG00000129824)): − (− = <0.9); effect in renormalizing the translational profile of the gene (gene RPS5 (ENSG00000083845)): − (− = <0.9)

— US9993494B2, “Compositions and methods for treating fibrotic disease” (eFFECTOR Therapeutics, Inc., priority 2014, dated 2018)
